Assays:
giant foxtail = experiment: Test A pre-/postemergence herbicide test; format: in vivo, Setaria faberii
Procedure, shortened: (§1)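 Seeds in loam–sand blend received preemergence directed soil spray; separately, plants 2–10 cm at one- to two-leaf stage received postemergence spray, both with test chemicals in non-phytotoxic solvent with surfactant. After ~10 days in greenhouse, injury rated visually against untreated controls, 0 (no effect) to 100 (complete control).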

blackgrass = experiment: Test C pre-/postemergence herbicide test; format: in vivo, Alopecurus myosuroides
Procedure, shortened: (§2)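 Pre-emergence: seeds sown in loam/sand blend and treated with compound in surfactant-containing solvent. Post-emergence: plants at 2–18 cm (1- to 4-leaf stage) in peat-based medium sprayed with the same formulation. Visual rating versus controls after 13–15 days in greenhouse, scale 0 (no effect) to 100 (complete control).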

barnyardgrass [1] = experiment: Test A pre-/postemergence herbicide test; format: in vivo, Echinochloa crus-galli
Procedure, shortened: as §1

ragweed = experiment: Test C pre-/postemergence herbicide test; format: in vivo, Ambrosia elatior
Procedure, shortened: as §2

rice = experiment: Test B flooded paddy test; format: in vivo, Oryza sativa; conditions: 500 g ai/ha, Flood; scale of 0 to 100 where 0 is no effect and 100 is complete control
Procedure, shortened: (§3)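 In-water application to pots flooded 3 cm deep, plants at 2-leaf stage. Held in greenhouse 13–15 days at constant flood depth. Scored 0–100 by eye against controls.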

barnyardgrass [2] = experiment: Test C pre-/postemergence herbicide test; format: in vivo, Echinochloa crus-galli
Procedure, shortened: as §2

sedge, umbrella = experiment: Test B flooded paddy test; format: in vivo, Cyperus difformis; conditions: 500 g ai/ha, Flood; scale of 0 to 100 where 0 is no effect and 100 is complete control
Procedure, shortened: as §3

morningglory = experiment: Test C pre-/postemergence herbicide test; format: in vivo, Ipomoea coccinea
Procedure, shortened: as §2

ducksalad = experiment: Test B flooded paddy test; format: in vivo, Heteranthera limosa; conditions: 500 g ai/ha, Flood; scale of 0 to 100 where 0 is no effect and 100 is complete control
Procedure, shortened: as §3

barnyardgrass [3] = experiment: Test B flooded paddy test; format: in vivo, Echinochloa crus-galli; conditions: 500 g ai/ha, Flood; scale of 0 to 100 where 0 is no effect and 100 is complete control
Procedure, shortened: as §3

corn = experiment: Test A pre-/postemergence herbicide test; format: in vivo, Zea mays; conditions: Postemergence
Procedure, shortened: as §1

soybean = experiment: Test C pre-/postemergence herbicide test; format: in vivo, Glycine max
Procedure, shortened: as §2

crabgrass, large = experiment: Test C pre-/postemergence herbicide test; format: in vivo, Digitaria sanguinalis
Procedure, shortened: as §2

[4] = Postemergence, 125 g ai/ha, 0 to 100 scale, 0 is no effect, 100 is complete control
[5] = Postemergence, 500 g ai/ha, 0 to 100 scale (0 no effect, 100 complete control)
[6] = Preemergence, 125 g ai/ha, 0 to 100 scale where 0 is no effect and 100 is complete control
[7] = preemergence, 500 g ai/ha, 0 to 100 scale, 0 is no effect and 100 is complete control
[8] = Postemergence, 31 g ai/ha, scale 0 to 100 (0 no effect, 100 complete control)
[9] = Postemergence, 62 g ai/ha, scale 0 (no effect) to 100 (complete control)
[10] = Postemergence, 125 g ai/ha, scale 0 to 100 (0 no effect, 100 complete control)
[11] = Postemergence, 250 g ai/ha, scale 0 to 100 (0 no effect, 100 complete control)
[12] = Preemergence, 31 g ai/ha, scale 0 to 100, 0 is no effect and 100 is complete control
[13] = Preemergence, 62 g ai/ha, scale 0 to 100 (0 no effect, 100 complete control)
[14] = Preemergence, 125 g ai/ha, scale 0 to 100 (0 no effect, 100 complete control)
[15] = 500 g ai/ha, 0 to 100 scale (0 no effect, 100 complete control)
[16] = Postemergence, 125 g ai/ha, visual rating on 0 to 100 scale (0 no effect, 100 complete control), approx. 10 days
[17] = Preemergence, 500 g ai/ha, visual rating on 0 to 100 scale (0 no effect, 100 complete control)
[18] = Preemergence, 125 g ai/ha, scale 0 to 100

`O=C1NCC(c2cc(F)cc(F)c2)C1C(=O)Nc1ccc(F)cc1F` (racemic) [Compound 278] was tested, and the “Plant response rating, Foxtail, Giant” value (giant foxtail; [4]) was 80, the “Plant response rating, Foxtail, Giant” value (giant foxtail; [5]) was 80 and the “Plant response rating, Foxtail, Giant” value (giant foxtail; [6]) was 90. The “Plant response rating, Foxtail, Giant” value (giant foxtail; [7]) was 90, the “Plant response rating, Blackgrass” value (blackgrass; [8]) was 0 and the “Plant response rating, Blackgrass” value (blackgrass; [9]) was 0. For the same compound, the “Plant response rating, Blackgrass” value (blackgrass; [10]) was 0, the “Plant response rating, Blackgrass” value (blackgrass; [11]) was 0 and the “Blackgrass plant response rating” value (blackgrass; [12]) was 0. The “Blackgrass plant response rating” value (blackgrass; [13]) was 0, the “Plant response rating, Blackgrass” value (blackgrass; [14]) was 0 and the “Plant response rating (scale of 0 to 100), Blackgrass” value (blackgrass; Preemergence, 250 g ai/ha) was 0. For the same compound, the “Plant response rating, Barnyardgrass” value (barnyardgrass [1]; [4]) was 80, the “Plant response rating, Barnyardgrass” value (barnyardgrass [1]; [5]) was 90 and the “Plant response rating, Barnyardgrass” value (barnyardgrass [1]; [6]) was 80. The “Plant response rating, Barnyardgrass” value (barnyardgrass [1]; [7]) was 90, the “Plant response rating, Ragweed” value (ragweed; [8]) was 0 and the “Plant response rating, Ragweed” value (ragweed; [9]) was 0. For the same compound, the “Plant response rating, Ragweed” value (ragweed; [10]) was 10, the “Plant response rating, Ragweed” value (ragweed; [11]) was 0 and the “Ragweed plant response rating” value (ragweed; [12]) was 0. The “Ragweed plant response rating” value (ragweed; [13]) was 0, the “Plant response rating, Ragweed” value (ragweed; [14]) was 0 and the “Plant response rating (scale of 0 to 100), Ragweed” value (ragweed; Preemergence, 250 g ai/ha) was 0. The “Plant response rating, Rice” value (rice) was 0, the “Plant response rating, Barnyardgrass” value (barnyardgrass [2]; [8]) was 0 and the “Plant response rating, Barnyardgrass” value (barnyardgrass [2]; [9]) was 10. The “Plant response rating, Barnyardgrass” value (barnyardgrass [2]; [10]) was 55, the “Plant response rating, Barnyardgrass” value (barnyardgrass [2]; [11]) was 75 and the “Barnyardgrass plant response rating” value (barnyardgrass [2]; [12]) was 65. For the same compound, the “Barnyardgrass plant response rating” value (barnyardgrass [2]; [13]) was 90, the “Plant response rating, Barnyardgrass” value (barnyardgrass [2]; [14]) was 95 and the “Plant response rating (scale of 0 to 100; 0 is no effect, 100 is complete control), Barnyardgrass” value (barnyardgrass [2]; Preemergence, 250 g ai/ha) was 100. The “Plant response rating, Sedge, Umbrella” value (sedge, umbrella) was 0, the “Plant response rating, Morningglory” value (morningglory; [8]) was 0 and the “Plant response rating, Morningglory” value (morningglory; [9]) was 0. The “Plant response rating, Morningglory” value (morningglory; [10]) was 45, the “Plant response rating, Morningglory” value (morningglory; [11]) was 0 and the “Morningglory plant response rating” value (morningglory; [12]) was 0. The “Morningglory plant response rating” value (morningglory; [13]) was 0, the “Plant response rating, Morningglory” value (morningglory; [14]) was 0 and the “Plant response rating (scale of 0 to 100), Morningglory” value (morningglory; Preemergence, 250 g ai/ha) was 0. The “Plant response rating, Ducksalad” value (ducksalad) was 100, the “Plant response rating, Barnyardgrass” value (barnyardgrass [3]) was 60 and the “Plant response rating, Corn” value (corn; 125 g ai/ha, 0 to 100 scale, 0 is no effect, 100 is complete control) was 0. The “Plant response rating, Corn” value (corn; [15]) was 0, the “Plant response rating, Soybean” value (soybean; [8]) was 50 and the “Plant response rating, Soybean” value (soybean; [9]) was 55. The “Plant response rating, Soybean” value (soybean; [10]) was 40, the “Plant response rating, Soybean” value (soybean; [11]) was 15 and the “Soybean plant response rating” value (soybean; [12]) was 0. For the same compound, the “Soybean plant response rating” value (soybean; [13]) was 0, the “Plant response rating, Soybean” value (soybean; [14]) was 10 and the “Plant response rating (scale of 0 to 100), Soybean” value (soybean; Preemergence, 250 g ai/ha) was 10. For the same compound, the “Plant response rating, Crabgrass, Large” value (crabgrass, large; [8]) was 0, the “Plant response rating, Crabgrass, Large” value (crabgrass, large; [9]) was 30 and the “Plant response rating, Crabgrass, Large” value (crabgrass, large; [10]) was 65. The “Plant response rating, Crabgrass, Large” value (crabgrass, large; [11]) was 75, the “Crabgrass, Large plant response rating” value (crabgrass, large; [12]) was 90 and the “Crabgrass, Large plant response rating” value (crabgrass, large; [13]) was 95. For the same compound, the “Plant response rating, Crabgrass, Large” value (crabgrass, large; [14]) was 98 and the “Plant response rating (scale of 0 to 100), Crabgrass, Large” value (crabgrass, large; Preemergence, 250 g ai/ha) was 100.
In the case of `O=C1NCC(c2cccc(Br)c2)C1C(=O)Nc1cccc(F)c1F` (centres unmarked) [Compound 309], the “Plant response rating, Foxtail, Giant” value (giant foxtail; [16]) is reported as 80, the “Plant response rating, Foxtail, Giant” value (giant foxtail; [5]) is reported as 90 and the “Plant response rating, Foxtail, Giant” value (giant foxtail; [6]) is reported as 90. The “Foxtail, Giant plant response rating” value (giant foxtail; [17]) was 90, the “Plant response rating, Blackgrass” value (blackgrass; [8]) was 0 and the “Plant response rating, Blackgrass” value (blackgrass; [9]) was 0. For the same compound, the “Plant response rating, Blackgrass” value (blackgrass; [10]) was 5, the “Plant response rating, Blackgrass” value (blackgrass; [11]) was 5 and the “Blackgrass plant response rating” value (blackgrass; [12]) was 0. For the same compound, the “Blackgrass plant response rating” value (blackgrass; [13]) was 0, the “Plant response rating, Blackgrass” value (blackgrass; [18]) was 50 and the “Plant response rating (scale of 0 to 100), Blackgrass” value (blackgrass; Preemergence, 250 g ai/ha) was 45. For the same compound, the “Plant response rating, Barnyardgrass” value (barnyardgrass [1]; [16]) was 80, the “Plant response rating, Barnyardgrass” value (barnyardgrass [1]; [5]) was 90 and the “Plant response rating, Barnyardgrass” value (barnyardgrass [1]; [6]) was 80. The “Barnyardgrass plant response rating” value (barnyardgrass [1]; [17]) was 80, the “Plant response rating, Ragweed” value (ragweed; [8]) was 0 and the “Plant response rating, Ragweed” value (ragweed; [9]) was 0. The “Plant response rating, Ragweed” value (ragweed; [10]) was 35, the “Plant response rating, Ragweed” value (ragweed; [11]) was 40 and the “Ragweed plant response rating” value (ragweed; [13]) was 10. The “Plant response rating, Ragweed” value (ragweed; [18]) was 25, the “Plant response rating (scale of 0 to 100), Ragweed” value (ragweed; Preemergence, 250 g ai/ha) was 65 and the “Plant response rating, Rice” value (rice) was 0. The “Plant response rating, Barnyardgrass” value (barnyardgrass [2]; [8]) was 0, the “Plant response rating, Barnyardgrass” value (barnyardgrass [2]; [9]) was 15 and the “Plant response rating, Barnyardgrass” value (barnyardgrass [2]; [10]) was 55. For the same compound, the “Plant response rating, Barnyardgrass” value (barnyardgrass [2]; [11]) was 60, the “Barnyardgrass plant response rating” value (barnyardgrass [2]; [12]) was 60 and the “Barnyardgrass plant response rating” value (barnyardgrass [2]; [13]) was 90. For the same compound, the “Plant response rating, Barnyardgrass” value (barnyardgrass [2]; [14]) was 90, the “Plant response rating (scale of 0 to 100; 0 is no effect, 100 is complete control), Barnyardgrass” value (barnyardgrass [2]; Preemergence, 250 g ai/ha) was 95 and the “Plant response rating, Sedge, Umbrella” value (sedge, umbrella) was 0. For the same compound, the “Plant response rating, Morningglory” value (morningglory; [8]) was 60, the “Plant response rating, Morningglory” value (morningglory; [9]) was 10 and the “Plant response rating, Morningglory” value (morningglory; [10]) was 25. For the same compound, the “Plant response rating, Morningglory” value (morningglory; [11]) was 10, the “Morningglory plant response rating” value (morningglory; [12]) was 0 and the “Morningglory plant response rating” value (morningglory; [13]) was 0. For the same compound, the “Plant response rating, Morningglory” value (morningglory; [18]) was 10, the “Plant response rating (scale of 0 to 100), Morningglory” value (morningglory; Preemergence, 250 g ai/ha) was 10 and the “Plant response rating, Ducksalad” value (ducksalad) was 100. For the same compound, the “Plant response rating, Barnyardgrass” value (barnyardgrass [3]) was 65, the “Plant response rating, Corn” value (corn; 125 g ai/ha, visual rating on 0 to 100 scale (0 no effect, 100 complete control), approx. 10 days) was 30 and the “Plant response rating, Corn” value (corn; [15]) was 80. The “Plant response rating, Soybean” value (soybean; [8]) was 0, the “Plant response rating, Soybean” value (soybean; [9]) was 0 and the “Plant response rating, Soybean” value (soybean; [10]) was 15. The “Plant response rating, Soybean” value (soybean; [11]) was 0, the “Soybean plant response rating” value (soybean; [13]) was 0 and the “Plant response rating, Soybean” value (soybean; [18]) was 0. For the same compound, the “Plant response rating (scale of 0 to 100), Soybean” value (soybean; Preemergence, 250 g ai/ha) was 0, the “Plant response rating, Crabgrass, Large” value (crabgrass, large; [8]) was 0 and the “Plant response rating, Crabgrass, Large” value (crabgrass, large; [9]) was 30. The “Plant response rating, Crabgrass, Large” value (crabgrass, large; [10]) was 60, the “Plant response rating, Crabgrass, Large” value (crabgrass, large; [11]) was 65 and the “Crabgrass, Large plant response rating” value (crabgrass, large; [12]) was 90. The “Crabgrass, Large plant response rating” value (crabgrass, large; [13]) was 90, the “Plant response rating, Crabgrass, Large” value (crabgrass, large; [18]) was 95 and the “Plant response rating (scale of 0 to 100), Crabgrass, Large” value (crabgrass, large; Preemergence, 250 g ai/ha) was 98.
